Data published in ChEMBL document CHEMBL1667816, “Preparation and in vitro screening of symmetrical bis-isoquinolinium cholinesterase inhibitors bearing various connecting linkage--implications for early Myasthenia gravis treatment” (Eur J Med Chem, 2011).

Assays:
Acetylcholinesterase [1] = target: T1, Acetylcholinesterase (Homo sapiens, UniProt P22303); assay: Inhibition of human recombinant AChE by Lineweaver-Burk plot analysis
Cholinesterase = Cholinesterase (Homo sapiens, UniProt P06276); assay: Inhibition of human plasmatic BChE by Lineweaver-Burk plot analysis; assay type: cell-free, Plasma
Acetylcholinesterase [2] = target: T1, Acetylcholinesterase
Description: Dissociation constant for enzyme-inhibitor complex of human recombinant AChE by Lineweaver-Burk plot analysis

Acetylcholinesterase [3] = target: T1, Acetylcholinesterase; remark: listed apart in the source
Description: Dissociation constant for enzyme-inhibitor-substrate complex of human recombinant AChE by Lineweaver-Burk plot analysis

Sequence of Cholinesterase (P06276 whole entry): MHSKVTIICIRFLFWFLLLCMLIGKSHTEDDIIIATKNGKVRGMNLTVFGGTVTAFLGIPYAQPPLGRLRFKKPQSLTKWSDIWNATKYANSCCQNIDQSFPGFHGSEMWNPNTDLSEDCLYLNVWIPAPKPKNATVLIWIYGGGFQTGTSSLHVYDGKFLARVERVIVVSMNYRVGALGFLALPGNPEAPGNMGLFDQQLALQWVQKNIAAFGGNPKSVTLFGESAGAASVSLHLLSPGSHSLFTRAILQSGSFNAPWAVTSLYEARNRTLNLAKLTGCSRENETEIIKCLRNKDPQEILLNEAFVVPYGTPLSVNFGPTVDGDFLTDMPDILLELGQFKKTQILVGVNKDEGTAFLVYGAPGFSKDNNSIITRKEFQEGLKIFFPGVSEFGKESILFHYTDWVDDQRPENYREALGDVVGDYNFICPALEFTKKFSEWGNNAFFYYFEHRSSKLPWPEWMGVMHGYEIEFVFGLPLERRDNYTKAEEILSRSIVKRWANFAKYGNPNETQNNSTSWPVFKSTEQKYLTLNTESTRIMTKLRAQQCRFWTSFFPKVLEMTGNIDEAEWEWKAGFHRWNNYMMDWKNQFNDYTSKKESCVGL
T1 sequence (P22303 whole entry): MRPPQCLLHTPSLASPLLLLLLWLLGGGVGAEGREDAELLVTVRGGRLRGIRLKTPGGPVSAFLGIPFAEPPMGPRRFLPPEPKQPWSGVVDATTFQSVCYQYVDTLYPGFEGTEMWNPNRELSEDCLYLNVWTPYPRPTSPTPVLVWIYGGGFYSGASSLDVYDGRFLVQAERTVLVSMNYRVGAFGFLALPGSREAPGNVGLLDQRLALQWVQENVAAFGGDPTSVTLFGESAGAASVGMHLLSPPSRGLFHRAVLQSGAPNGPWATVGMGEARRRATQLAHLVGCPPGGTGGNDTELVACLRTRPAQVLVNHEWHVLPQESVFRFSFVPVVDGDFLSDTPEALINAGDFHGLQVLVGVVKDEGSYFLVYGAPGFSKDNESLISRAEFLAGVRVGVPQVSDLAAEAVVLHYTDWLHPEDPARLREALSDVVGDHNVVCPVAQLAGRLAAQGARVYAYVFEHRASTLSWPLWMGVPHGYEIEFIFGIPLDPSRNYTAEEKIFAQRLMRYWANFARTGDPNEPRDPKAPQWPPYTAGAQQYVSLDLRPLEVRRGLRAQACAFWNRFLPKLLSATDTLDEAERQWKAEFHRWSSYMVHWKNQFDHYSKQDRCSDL

Row | Compound | IC50 (Acetylcholinesterase [1]) [µM] | IC50 (Cholinesterase) [µM] | Ki (Acetylcholinesterase [2]) [µM] | Ki (Acetylcholinesterase [3]) [µM]
1 | c1ccc2c[n+](CCCCCCCCC[n+]3ccc4ccccc4c3)ccc2c1 | 0.04 | 0.6 |  | 
2 | c1ccc2c[n+](CCCCCCCCCCC[n+]3ccc4ccccc4c3)ccc2c1 | 0.1 | 9 |  | 
3 | c1ccc2c[n+](CCCCCCCCCCCC[n+]3ccc4ccccc4c3)ccc2c1 | 137 | 0.1 |  | 
4 | c1ccc2c[n+](CCCCCCCCCC[n+]3ccc4ccccc4c3)ccc2c1 | 0.05 | 1.6 |  | 
5 | c1ccc2c[n+](C[n+]3ccc4ccccc4c3)ccc2c1 | 654 | 1400 |  | 
6 | c1ccc2c[n+](CCC[n+]3ccc4ccccc4c3)ccc2c1 | 446 | 2600 |  | 
7 | c1ccc2c[n+](CCCC[n+]3ccc4ccccc4c3)ccc2c1 | 36 | 40 |  | 
8 | c1ccc2c[n+](CCCCC[n+]3ccc4ccccc4c3)ccc2c1 | 13 | 0.7 |  | 
9 | c1ccc2c[n+](CCCCCC[n+]3ccc4ccccc4c3)ccc2c1 | 0.3 | 2 |  | 
10 | c1ccc2c[n+](CCCCCCC[n+]3ccc4ccccc4c3)ccc2c1 | 0.5 | 3 |  | 
11 | c1ccc2c[n+](COC[n+]3ccc4ccccc4c3)ccc2c1 | 2 | 154 |  | 
12 | c1ccc2c[n+](CCOCC[n+]3ccc4ccccc4c3)ccc2c1 | 1310 | 51 |  | 
13 | C(=C\C[n+]1ccc2ccccc2c1)/C[n+]1ccc2ccccc2c1 | 7 | 64 |  | 
14 | C(=C/C[n+]1ccc2ccccc2c1)/C[n+]1ccc2ccccc2c1 | 17 | 25 |  | 
15 | c1ccc(C[n+]2ccc3ccccc3c2)c(C[n+]2ccc3ccccc3c2)c1 | 250 | 0.6 |  | 
16 | c1cc(C[n+]2ccc3ccccc3c2)cc(C[n+]2ccc3ccccc3c2)c1 | 8 | 1 |  | 
17 | c1ccc2c[n+](Cc3ccc(C[n+]4ccc5ccccc5c4)cc3)ccc2c1 | 12 | 840 |  | 
18 | c1ccc2c[n+](Cc3ccc4ccc(C[n+]5ccc6ccccc6c5)cc4c3)ccc2c1 | 0.3 | 4 | 1.25 | 0.75
19 | C[N+](C)(CCNC(=O)C(=O)NCC[N+](C)(C)Cc1ccccc1Cl)Cc1ccccc1Cl [AMBENONIUM DICHLORIDE] |  | 6.82 |  | 
20 | CC[N+](C)(C)c1cccc(O)c1 [EDROPHONIUM CHLORIDE] |  | 1370 |  | 
